Laboratory results: patent US12649768B2, “Recombinant expression vector for high expression of brazzein in Saccharomyces cerevisiae and method for mass-production of brazzein using the same” (CHUNG-ANG UNIVERSITY INDUSTRY-ACADEMIC COOPERATION …, priority 2021, dated 2026)
No end group written: not given here.

Experiments:
[1] = Brazzein sweetness activity by ascending taste test with a trained human panel; format: in vivo, humans; details: threshold concentration at which sweetness is first felt, 500 μl samples tasted from low to high concentration
Experimental: Since brazzein is a protein rather than a sugar, it is not possible to measure sweetness using a saccharimeter. Therefore, the activity was measured using a taste test that measures the activity of brazzein by allowing humans to directly taste brazzein. First, brazzein was dissolved in distilled water such that the final concentration was 1.0 mg/mL, samples were prepared by varying the test concentration so as to be 30 to 0.05 ng/mL, a threshold value for feeling the sweetness for the first time was obtained by tasting the sweetness of the solution, […] The specific activity measurement method was performed as follows.
A panel of a total of 20 males and 10 females trained in the sweetness test was configured. Prior to the activity measurement, the subjects were informed of the test date and time in advance to sample the taste in their best conditions, and were prohibited from drinking alcohol on the day before the test and eating food, smoking, and the like immediately before the test. The subjects trained in advance rinsed their mouths with prepared secondary distilled water and obtained the concentration at which the sweetness was first felt while sampling the taste of 500 μl of each sample according to the concentration of each type in the order of low concentration to high concentration. […]

[2] = versus 2% sugar solution, cited from earlier work

Row | Substance | sweetness activity relative to the same mass of sucrose [1] | sweetness relative to a 2% sugar solution, on a molar basis ([2]; molar basis) [fold] | sweetness relative to a 2% sugar solution, on a molecular weight basis ([2]; molecular weight basis)
1 | K. lactis wild-type brazzein: wild-type brazzein expressed in K. lactis, used as the sweetness comparison (QDKCKKVYENYPVSKCQLANQCNYDCKLDKHARSGECFYDEKRNLQCICDYCEY; ends and bridges not checked; cysteine pairing not given here; UniProt P56552 1-54, looked up) [reference compound] | 2,309 (±6.8%) fold | – | –
2 | Brazzein: natural sweet protein of 54 amino acid residues, 6.5 kDa, from the fruit of Pentadiplandra brazzeana Baillon (QDKCKKVYENYPVSKCQLANQCNYDCKLDKHARSGECFYDEKRNLQCICDYCEY; UniProt P56552 1-54, looked up) | – | ~9500 | about 2000 fold
3 | S. cerevisiae wild-type brazzein: wild-type brazzein (SEQ ID NO: 3) secreted and expressed in Saccharomyces cerevisiae with the pESC-Brazzein vector (DKCKKVYENYPVSKCQLANQCNYDCKLDKHARSGECFYDEKRNLQCICDYCEY) | about 2,260 (±5.9%) fold | – | –
